From publication PMC5715595 (British Journal of Pharmacology, 2017)
Like-named read-outs stand apart in the source and are kept apart here.

Tests used:
hERG channel trafficking = tested on: hERG channel trafficking
Source text: Whole‐cell patch clamp conditions were similar to the previous one with the following slight changes (biphasic pulses 2 s at +20 mV and then for 3.2 s at −50 mV applied at a 0.1 Hz).

humans = details: human, ref Shah et al., 2016, cited from earlier work
KV1.5 = biological target: T1, KV1.5 (Homo sapiens, UniProt P22460); assay: Whole-cell patch clamp on KV1.5 (IKur); assay type: cell-based
T1 construct: expressed in transfected cells
T1 sequence (P22460 whole entry): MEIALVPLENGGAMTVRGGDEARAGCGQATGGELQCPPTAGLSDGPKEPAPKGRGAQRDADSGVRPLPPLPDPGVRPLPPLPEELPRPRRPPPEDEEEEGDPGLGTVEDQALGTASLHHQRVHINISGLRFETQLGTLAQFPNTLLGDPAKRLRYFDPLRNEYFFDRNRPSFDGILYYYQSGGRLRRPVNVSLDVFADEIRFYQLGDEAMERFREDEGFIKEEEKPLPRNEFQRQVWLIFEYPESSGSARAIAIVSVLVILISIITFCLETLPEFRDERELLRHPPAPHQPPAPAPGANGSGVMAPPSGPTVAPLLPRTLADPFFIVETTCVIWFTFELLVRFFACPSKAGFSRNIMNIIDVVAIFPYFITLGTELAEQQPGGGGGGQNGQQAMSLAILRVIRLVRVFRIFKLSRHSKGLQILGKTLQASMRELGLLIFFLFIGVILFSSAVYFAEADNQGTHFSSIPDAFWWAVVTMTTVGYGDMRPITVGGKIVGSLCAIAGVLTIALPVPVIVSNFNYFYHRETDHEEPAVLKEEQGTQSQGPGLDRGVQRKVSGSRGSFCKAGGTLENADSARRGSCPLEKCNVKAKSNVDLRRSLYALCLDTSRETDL
Experimental: (§1) and CiPA Initiative Studies
(§2) =============================================================
(§3) In vitro studies on other ion channels […]
(§4) through NaV1.5, KV4.3, KV7.1/mink, Kir2.1, KV1.5, CaV1.2 and CaV3.2 channels.
(§5) 35-mm dish culture in the conditions mentioned in standard cell culture conditions. Experiments were performed with a cell density enabling isolated cells for patch clamping. Cells were continuously superfused with extracellular medium (1-2 mL∙minute-1) at room temperature.
(§6) D-glucose 10, HEPES 10 and the final pH adjusted to 7.4±0.02 with NaOH for recording NaV1.5, KV4.3, KV7.1/mink, Kir2.1, KV1.5 and CaV3.2 currents. It was (in mM): NaCl 110, KCl 4, BaCl2 20, MgCl2 1, D-glucose 20, HEPES 10 and the final pH adjusted to 7.4 ± 0.02 with NaOH for recording the CaV1.2 current. Compositions of the intracellular solution to fill the pipette are […]
(§7) Composition of intracellular solutions used to fill pipette to record currents through NaV1.5, KV4.3, KV7.1/mink, Kir2.1, KV1.5, CaV1.2 and CaV3.2 channels
(§8) Solution to fill the pipette (mM)
(§9) Creatine-phospho kinase 50 U∙mL-1
(§10) After formation of a Gigaohm seal between the patch electrodes and individual cells (pipette resistance range: 2.0 MΩ - 7.0 MΩ; seal resistance range: > 1 GΩ) the cell membrane across the pipette tip was ruptured to assure electrical access to the cell interior (whole-cell patch-configuration). In case the quality of the seal was poor, the process of seal formation was repeated with a different cell and a new pipette. As soon as a stable seal was established outward tail currents were measured upon pulses described in the Table S2. If current density was judged to be too low for measurement, another cell was recorded. […]
(§11) voltage stimulation protocol indicated in the next table continuously run until the steady-state level of block was reached.
(§12) Stimulation conditions used to record currents through NaV1.5, KV4.3, KV7.1/mink, Kir2.1, KV1.5, CaV1.2 and CaV3.2 channels
(§13) Ion channel Holding potential Pulse / duration Frequency Reference compound […]
(§14) (resting / fast / slow sweeps at one (10 mM) inactivated concentration)

anaesthetized rabbits = tested on: anaesthetized rabbits
Experimental: All the other experimental groups were 100% female. Animals were anaesthetized with sodium pentobarbital (45–60 mg·kg^−1 i.v.), maintained on a heated pad and mechanically ventilated with room air. […] A fluid‐filled catheter was inserted into the carotid artery to measure systemic arterial blood pressure and for blood sampling. A venous catheter was implanted into the jugular vein for infusion of drugs. Standard surface ECG leads I, II and III were monitored continuously to measure ECG intervals and the occurrence of ventricular tachyarrhythmia. Measurements of arterial blood pressures were calculated over 30 s duration at baseline and every 5 min. […] Then, for all determinations, the means of 10–30 consecutive sinus beats were automatically calculated at each time point (i.e. at the end of the stabilization period and then every 5 until 60 min after starting drug infusion) or until the occurrence of premature ventricular beats. Parameters recorded were systolic, diastolic and mean arterial blood pressure (mmHg), heart rate (beats·min^‐1 calculated from RR interval) as well as PR, QRS and QT/QTU intervals (ms), amplitudes of T‐wave and U‐wave (mV) and rhythm disturbances retrieved from ECG signals. […] Arrhythmia were scored according to the following scale: 0 being no arrhythmia, 1 being premature beats, 2 being auriculo‐ventricular blocks, 3 being ventricular tachycardia and 4 being TdP; and scores correspond to the average of maximal life‐threatening arrhythmias recorded during the experiment. […] Haemodynamic and ECG recordings were monitored continuously over 60 min following the start of infusion.

in vivo = assay: in vivo; set-up: species or system rabbit; details: female, rabbit, in vivo, iv, read-out: free drug concentration
Experimental: All the other experimental groups were 100% female.
The anaesthetized methoxamine‐sensitized rabbit model of TdP is frequently used to study torsadogenic potential of drugs (Carlsson et al., 1990). Briefly, female animals were pre‐sensitized with i.v. infusion of methoxamine, an α1‐adrenoceptor agonist, delivered at 15 μg·kg^−1·min^−1 (6 mL·h^−1) over 70 min.

KV7.1/mink = biological target: T2, KV7.1/mink (Homo sapiens, UniProt P51787); assay: Whole-cell patch clamp on KV7.1/mink (IKs); assay type: cell-based
T2 construct: expressed in transfected cells
Experimental: as §1, §2, §3, §4, §5, §6, §7, §8, §9, §10, §11, §12, §13, §14

CaV1.2 = CaV1.2 (Homo sapiens, UniProt Q13936); assay: cell-based
Experimental: as §1, §2, §3, §4, §5, §6, §7, §8, §9, §10, §11, §12, §13, §14

NaV1.5 = NaV1.5 (Homo sapiens, UniProt Q14524); assay: cell-based
Sequence of NaV1.5 (Q14524 whole entry): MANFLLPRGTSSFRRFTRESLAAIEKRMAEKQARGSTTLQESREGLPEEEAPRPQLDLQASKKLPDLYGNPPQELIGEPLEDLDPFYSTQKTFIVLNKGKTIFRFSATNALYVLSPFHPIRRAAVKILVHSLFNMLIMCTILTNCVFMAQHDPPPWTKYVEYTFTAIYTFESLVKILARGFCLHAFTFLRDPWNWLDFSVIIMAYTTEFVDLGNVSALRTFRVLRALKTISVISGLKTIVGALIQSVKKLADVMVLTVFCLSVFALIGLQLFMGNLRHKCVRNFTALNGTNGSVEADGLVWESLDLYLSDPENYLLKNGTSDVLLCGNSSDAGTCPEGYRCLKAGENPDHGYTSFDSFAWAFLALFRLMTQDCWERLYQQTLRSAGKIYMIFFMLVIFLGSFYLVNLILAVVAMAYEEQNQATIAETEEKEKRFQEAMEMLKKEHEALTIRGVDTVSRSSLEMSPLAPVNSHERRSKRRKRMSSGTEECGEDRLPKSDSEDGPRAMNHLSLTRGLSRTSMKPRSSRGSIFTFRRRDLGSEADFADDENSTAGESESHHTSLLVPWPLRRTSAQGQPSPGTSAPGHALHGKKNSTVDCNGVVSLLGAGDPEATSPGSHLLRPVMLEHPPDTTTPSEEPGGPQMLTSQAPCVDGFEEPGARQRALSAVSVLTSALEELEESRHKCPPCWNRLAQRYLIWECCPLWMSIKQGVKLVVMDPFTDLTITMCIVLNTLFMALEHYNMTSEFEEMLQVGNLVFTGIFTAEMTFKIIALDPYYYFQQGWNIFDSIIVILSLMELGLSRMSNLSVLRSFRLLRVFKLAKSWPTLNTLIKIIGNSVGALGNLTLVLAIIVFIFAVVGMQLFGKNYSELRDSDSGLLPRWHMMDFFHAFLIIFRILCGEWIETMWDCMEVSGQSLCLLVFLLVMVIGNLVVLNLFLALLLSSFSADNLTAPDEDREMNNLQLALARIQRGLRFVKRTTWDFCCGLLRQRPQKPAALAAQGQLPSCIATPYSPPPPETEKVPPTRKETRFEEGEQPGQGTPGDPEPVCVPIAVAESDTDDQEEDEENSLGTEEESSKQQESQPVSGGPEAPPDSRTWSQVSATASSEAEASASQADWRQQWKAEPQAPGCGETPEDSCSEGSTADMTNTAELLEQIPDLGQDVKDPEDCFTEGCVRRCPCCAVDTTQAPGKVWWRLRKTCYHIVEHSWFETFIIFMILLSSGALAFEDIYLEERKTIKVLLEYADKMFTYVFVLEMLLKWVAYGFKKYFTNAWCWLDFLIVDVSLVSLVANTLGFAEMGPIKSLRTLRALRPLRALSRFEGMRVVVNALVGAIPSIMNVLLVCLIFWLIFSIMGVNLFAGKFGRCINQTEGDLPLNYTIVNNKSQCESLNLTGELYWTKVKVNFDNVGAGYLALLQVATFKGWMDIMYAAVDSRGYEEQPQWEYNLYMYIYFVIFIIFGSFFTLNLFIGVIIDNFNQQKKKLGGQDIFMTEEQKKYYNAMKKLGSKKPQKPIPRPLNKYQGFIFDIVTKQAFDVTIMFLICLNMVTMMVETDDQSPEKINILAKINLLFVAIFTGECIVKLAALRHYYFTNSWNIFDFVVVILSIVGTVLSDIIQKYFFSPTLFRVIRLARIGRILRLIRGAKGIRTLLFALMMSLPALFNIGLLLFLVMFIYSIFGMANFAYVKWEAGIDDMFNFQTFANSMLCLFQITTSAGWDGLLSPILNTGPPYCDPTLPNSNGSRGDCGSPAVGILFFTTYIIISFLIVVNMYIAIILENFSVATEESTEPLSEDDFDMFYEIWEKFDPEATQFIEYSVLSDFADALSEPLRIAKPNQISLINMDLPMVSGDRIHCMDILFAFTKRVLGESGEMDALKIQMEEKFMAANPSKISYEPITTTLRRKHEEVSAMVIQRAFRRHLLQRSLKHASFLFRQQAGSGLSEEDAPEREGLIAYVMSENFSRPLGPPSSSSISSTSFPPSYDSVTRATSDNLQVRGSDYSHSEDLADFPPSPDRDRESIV
Experimental: as §1, §2, §3, §4, §5, §6, §7, §8, §9, §10, §11, §12, §13, §14

[1] = cumulative i.v. infusion 1, 3.3 and 10 mg·kg^−1 in successive 20 min steps

In the case of `Cl.Clc1ccc(CCCOCCCN2CCCCC2)cc1` [pitolisant, 1‐{3‐[3‐(4‐chlorophenyl)propoxy]propyl}piperidine, hydrochloride], the “effect on hERG current after long-term exposure” value (hERG channel trafficking; 1 μM over 24 h, after washout) is listed as “no significant effect on hERG current”, the “change in concentration in the cell culture medium over 24 h of exposure” value (hERG channel trafficking; LC-mass spectrometry) is listed as “no significant changes” and the “maximum mean (90% CI) placebo-corrected increase in QTcF interval from baseline (ΔΔQTcF)” value (humans; 40 mg pitolisant hydrochloride, TQT study) is listed as 3.29 (0.35, 6.23) ms. For the same compound, the Cmax (humans; 40 mg) was 53 ± 27 ng/mL, the “maximum mean (90% CI) placebo-corrected increase in QTcF interval from baseline (ΔΔQTcF)” value (humans; 120 mg pitolisant hydrochloride, TQT study) was 5.27 (2.35, 8.20) ms and the Cmax (humans; 120 mg) was 164 ± 63 ng/mL. For the same compound, the “maximum mean (90% CI) placebo-corrected increase in QTcF interval from baseline (ΔΔQTcF)” value (humans; 200 mg pitolisant hydrochloride, SAD study) was 13.3 (8.1, 18.5) ms, the “maximum mean (90% CI) placebo-corrected increase in QTcF interval from baseline (ΔΔQTcF)” value (humans; 240 mg pitolisant hydrochloride, SAD study) was 9.9 (4.7, 15.1) ms and the Cmax (humans; 240 mg) was 282 ± 47 ng/mL. For the same compound, the IC50 (KV1.5; KV1.5 IKur, Hill curve fit with Hill coefficient of one, read-out: Fitted IC50) was 13.8 µM, the IC50 (KV1.5; Pitolisant IC50, KV1.5, IKur) was no less than 10 µM and the “QTc interval (ms) (mean ± SEM)” value (anaesthetized rabbits; 1 mg·kg^−1 infused over 1 h, 10 min into infusion) was 154 ± 2 ms. The “QTc interval (ms) (mean ± SEM)” value (anaesthetized rabbits; 1 mg·kg^−1 infused over 1 h, 20 min into infusion) was 156 ± 2 ms, the “QTc interval (ms) (mean ± SEM)” value (anaesthetized rabbits; 1 mg·kg^−1 infused over 1 h, 30 min into infusion) was 156 ± 2 ms and the “QTc interval (ms) (mean ± SEM)” value (anaesthetized rabbits; 1 mg·kg^−1 infused over 1 h, 40 min into infusion) was 156 ± 2 ms. The “QTc interval (ms) (mean ± SEM)” value (anaesthetized rabbits; 1 mg·kg^−1 infused over 1 h, 50 min into infusion) was 157 ± 2 ms, the “QTc interval (ms) (mean ± SEM)” value (anaesthetized rabbits; 1 mg·kg^−1 infused over 1 h, 60 min into infusion) was 157 ± 3 ms and the “QTc interval (ms) (mean ± SEM)” value (anaesthetized rabbits; 1 mg·kg^−1 infused over 1 h, baseline) was 152 ± 3 ms. The “QTc interval (ms) (mean ± SEM)” value (anaesthetized rabbits; 10 mg·kg^−1 dose range (successively over 20 min at 1, 3.3 and 10 mg·kg^−1), 10 min into infusion) was 148 ± 3 ms, the “QTc interval (ms) (mean ± SEM)” value (anaesthetized rabbits; 10 mg·kg^−1 dose range (successively over 20 min at 1, 3.3 and 10 mg·kg^−1), 20 min into infusion) was 149 ± 2 ms and the “QTc interval (ms) (mean ± SEM)” value (anaesthetized rabbits; 10 mg·kg^−1 dose range (successively over 20 min at 1, 3.3 and 10 mg·kg^−1), 30 min into infusion) was 151 ± 2 ms. The “QTc interval (ms) (mean ± SEM)” value (anaesthetized rabbits; 10 mg·kg^−1 dose range (successively over 20 min at 1, 3.3 and 10 mg·kg^−1), 40 min into infusion) was 151 ± 1 ms, the “QTc interval (ms) (mean ± SEM)” value (anaesthetized rabbits; 10 mg·kg^−1 dose range (successively over 20 min at 1, 3.3 and 10 mg·kg^−1), 50 min into infusion) was 148 ± 4 ms and the “QTc interval (ms) (mean ± SEM)” value (anaesthetized rabbits; 10 mg·kg^−1 dose range (successively over 20 min at 1, 3.3 and 10 mg·kg^−1), 60 min into infusion) was 147 ± 2 ms. For the same compound, the “QTc interval (ms) (mean ± SEM)” value (anaesthetized rabbits; 10 mg·kg^−1 dose range (successively over 20 min at 1, 3.3 and 10 mg·kg^−1), baseline) was 144 ± 4 ms, the free drug concentration (anaesthetized rabbits; cumulative i.v. infusion 1, 3.3 and 10 mg·kg^−1, from total 13.8 μM) was ~ 0.55 μM and the “change in QTc interval vs. baseline” value (anaesthetized rabbits; [1]) was 2 ± 1%. The “decrease in heart rate” value (anaesthetized rabbits; [1]) was 17 ± 4%, the “maximal total drug exposure” value (anaesthetized rabbits; [1]) was 4140 ± 450 ng/mL and the total drug concentration (anaesthetized rabbits; [1]) was 13.8 ± 1.5 µM. For the same compound, the “effect on ventricular premature beats, ventricular tachycardia and TdP induced by clofilium (1 mg·kg^−1)” value (anaesthetized rabbits; pitolisant 10 mg·kg^−1) was “abolished”, the “change in QTc interval” value (anaesthetized rabbits; pitolisant single dose 1 mg·kg^−1 i.v. over 60 min) was “+3 ± 1%” and the ventricular arrhythmias (anaesthetized rabbits; up to 10 mg·kg^−1 by i.v. slow infusion) was “never observed”. For the same compound, the concentration at 1 h (in vivo; after 50 μg·kg^−1·min^−1 1 h i.v. infusion) was roughly 140 nM, the concentration at 1 h (in vivo; after 150 μg·kg^−1·min^−1 1 h i.v. infusion) was roughly 450 nM and the “Fitted IC50” value (KV7.1/mink; KV7.1/mink IKs, Hill curve fit with Hill coefficient of one) was “No effect”. It also gave an IC50 (KV7.1/mink; KV7.1/mink, IKs) greater than 10 µM, an IC50 (CaV1.2; Fitted IC50, CaV1.2 ICaL, Hill curve fit with Hill coefficient of one) of 9.5 µM and an IC50 (CaV1.2; Pitolisant IC50, CaV1.2, ICaL) of roughly 10 µM. It also gave an IC50 (NaV1.5; Fitted IC50, fit to fast inactivated Nav1.5) of 26.3 µM, an IC50 (NaV1.5; Fitted IC50, fit to slow inactivated Nav1.5) of 26.5 µM and an IC50 (NaV1.5; Fitted IC50, mean of fits to fast and slow inactivated Nav1.5, used for the whole Nav1.5 current, Hill coefficient of one) of 26.4 µM. For the same compound, the IC50 (NaV1.5; Pitolisant IC50, NaV1.5 fast inactivated state, INa) was no less than 10 µM, the IC50 (NaV1.5; Pitolisant IC50, NaV1.5 resting state, INa) was greater than 10 µM and the IC50 (NaV1.5; Pitolisant IC50, NaV1.5 slow inactivated state, INa) was no less than 10 µM.
